Measurements from patent US9662362B2, “Composition and methods for clotting blood” (BYZMED LLC, priority 2009, dated 2017).

System: nose bleeding
Assay: Nose bleeding after abrasion of the nasal passage, checked by blowing nose and dabbing with tissue
Format: in vivo
Conditions: visual check
Text: Nose bleeding was caused by creating an abrasion to the nasal passage of a subject by use of a cotton swab irritating the nasal passage. The subject then blew their nose vigorously. The first test was to create an abrasion and pinching the nostril with no application of any product. Bleeding was checked at multiple time points, including the after 30 seconds, 60 seconds and 90 seconds by blowing ones nose 3 times and dabbing the area with a tissue to see if there was continued perfuse bleeding. […] After 90 seconds, the first test was then concluded. Next, the effect of glycerin on nose bleeding was determined. Glycerin was applied to the nasal passage after bleeding had started. Bleeding was checked at multiple time points, including the after 30 seconds, 60 seconds and 90 seconds by blowing ones nose 3 times and dabbing the area with a tissue to see if there was continued perfuse bleeding. […] After 90 seconds, the second test was then concluded. The effect of the disclosed clotting agent that included the active ingredients of […] betonica, achillea millefolium, marrubium vulgare, and urtica dioica application on nose bleeding was then determined. Bleeding was checked at multiple time points, including after 30 seconds, 60 seconds and 90 seconds by the subject blowing their nose 3 times and dabbing the area with a tissue to see if there was continued perfuse bleeding. […] After 90 seconds, there was no bleeding in the nasal passage. This part of the test was then concluded.

Measured: bleeding in the nasal passage

OCC(O)CO [Glycerin]
bleeding continued: after 30 seconds, applied to nasal passage after bleeding had started | after 60 seconds (1 minute) | after 90 seconds
